Test results as given in patent publication US11591323B2, “Muscarinic agonists as non-steroidal and non-opioid analgesics and methods of use thereof” (Barry University, priority 2019, dated 2023).
Read-outs that look alike come from different tables or passages of the source.

Columns and labels:
[1] = tested on: submaxillary gland (rich in M3); assay: accumulation of IPX in dissipated rat submaxillary gland; type: cell-based; details: in words
Method: Effects of compounds 6A and 7A were then measured ex vivo in dissipated rat tissues (FIG. 5). Accumulation of IPX was measured in dissipated brain cortex (rich in M1 & M3), submaxillary gland (M1 & M3), and ventral tegmental area (M5). Native tissues express about 10-times less muscarinic receptors than CHO cell lines. Accumulation of cAMP was measured in cerebellum (M2) and striatum (M4).
Rat dissipated tissues: Suspension of dissipated tissues from rat brain cortex, cerebellum, striatum, ventral tegmental area (VTA) and submaxillary glands was prepared as described previously in supplementary methods. Adult 8-weeks old male Wistar rats were scarified by cervical dislocation in accordance with current legislative and guidelines under permission of Czech Ministry of Agriculture 16OZ23113/2017-17214. Tissues were dissected immediately. Submaxillary glands were minced by scissors. Tissues were dispersed by incubation for 15 min at 37° C. in KHB supplemented with trypsin and trituration every 5 min. Large undissipated parts were removed by cell mesh. […]
Measurements of the production of cAMP and inositol phosphates: Levels of second messengers cAMP and inositol phosphates were determined in radiochemical chromatography assays as described previously. […] Samples were applied to alumina columns (1.5 g of alumina per column), washed with 2 ml ammonium acetate (pH=7.0) and eluted from columns with 4 ml ammonium acetate and measured by liquid scintillation spectrometry. […] After separation of water and organic phases, 0.6 ml of water phase was applied to Dowex columns (1.5 g of Dowex per column), washed by 20 ml of 60 mM ammonium formate/5 mM sodium borate buffer and eluted from columns with 4 ml of 1M ammonium formate/0.1 formic acid buffer and measured by liquid scintillation spectrometry.
To exclude the possibility that the observed effects of compounds 6A and 7A are the result of overexpression in the heterologous system, functional response to the compounds was measured ex vivo in dissipated native rat tissues. […] Accumulation of cAMP was measured in M2-rich cerebellum and M4-rich striatum.

[2] = tested on: rat aorta smooth muscle cells (mainly M2, lesser M3); assay: cAMP level in primary culture of rat aorta smooth muscle cells; type: cell-based
Method: Effects of compounds 6A and 7A on both cAMP and IPX levels were also measured in primary cultures of rat aorta smooth muscle cells that express mainly M2 and to a lesser extent M3 receptors (FIG. 6). […] Receptor expression levels are far lower in tested native tissues than in transfected cell lines and vary among tissues, being highest in the striatum and lowest in the submaxillary gland. Relative expression levels of G-proteins are also known to vary among tissues and cell lines. Thus, it is great to see that the pharmacological profile of the new compounds is conserved despite these variations.
Cell culture and membrane preparation: Chinese hamster ovary (CHO) cells stably transfected with the genes of individual human variants of muscarinic receptors were purchased from Missouri S&T cDNA Resource Center (Rolla, Mo., USA). Fresh primary cell culture of smooth muscle cells (SMC) from rat aorta prepared as previously described was kindly provided by Dr. Lucie Bačáková. Primary culture of SMCs was grown to confluency in 75 cm^2 flasks in Dulbecco's modified Eagle's medium supplemented with 10% fetal bovine serum. Up to 6-times, 2 million of cells were sub-cultured. Cell cultures and crude membranes from CHO cells were prepared as described previously (Boulos et al., Chem Biol Drug Des 1-12, 2017). Cells were grown to confluency in 75 cm^2 flasks in Dulbecco's modified Eagle's medium supplemented with 10% fetal bovine serum and 2 million of cells were subcultured in 100 mm Petri dishes. Medium was supplemented with 5 mM butyrate for the last 24 hours of cultivation to increase receptor expression. When needed, cells were cultivated with pertussis toxin at a final concentration of 25 ng/ml for the 24 hours. Cells were detached by mild trypsinization on day 5 after subculture. Detached cells were washed twice in 50 ml of phosphate-buffered saline and 3 min centrifugation at 250×g. Washed cells were suspended in 20 ml of ice-cold incubation medium (100 mM NaCl, 20 mM Na-HEPES, 10 mM MgCl2, pH=7.4) supplemented with 10 mM EDTA and homogenized on ice by two 30 sec strokes using Polytron homogenizer (Ultra-Turrax; Janke & Kunkel GmbH & Co. KG, IKA-Labortechnik, Staufen, Germany) with a 30-sec pause between strokes. Cell homogenates were centrifuged for 30 min at 30,000×g. Supernatants were discarded, pellets suspended in fresh incubation medium, incubated on ice for 30 minutes and centrifuged again. Resulting membrane pellets were kept at −80° C. until assayed within 10 weeks at a maximum.
Measurements of the production of cAMP and inositol phosphates: Levels of second messengers cAMP and inositol phosphates were determined in radiochemical chromatography assays as described previously. To determine level of cAMP, cells in suspension were pre-incubated for 1 h with 0.4 μM [^3H]adenine, washed, and incubated for 10 min in the presence of isobutylmethylxanthine and 10 μM forskolin. […] Incubation was ended by addition of 0.2 ml of 2.5 M HCl to the samples. Samples were applied to alumina columns (1.5 g of alumina per column), washed with 2 ml ammonium acetate (pH=7.0) and eluted from columns with 4 ml ammonium acetate and measured by liquid scintillation spectrometry. […] For this purpose, new CHO cell lines stably expressing promiscuous G15 G-protein and M2 or M4 receptor were generated by transfection with pCMV/hygro vector and hygromycin selection. To determine the rate of formation of inositol phosphates IPX, suspended cells were pre-incubated with 0.1 μM [^3H]myo-inositol for 60 min, washed, and incubated with 10 mM LiCl for 15 min. […] The incubation was stopped by addition of 0.5 ml of chloroform methanol HCl mixture (2:1:0.1). […]

Row | SMILES | accumulation of IPX [1] | Maximal inhibition of cAMP synthesis [2] | cAMP level ([2]; in words) | Maximal inhibition of cAMP synthesis ([2]; in words)
1 | C[N+](C)(C)CCOC(N)=O [carbachol, reference compound] | profound accumulation of IPX | about 40% | transient decrease in cAMP level | –
2 | C[N+]1(Cc2cccs2)CC=CCC1.[I-] (centres unmarked) [Compound 7A, 1-methyl-1-[(thiophen-2-yl)methyl]-1,2,3,6-tetrahydropyridin-1-ium iodide] | no increase in IPX levels | about 40% | only inhibited cAMP synthesis | the same as inhibition by carbachol
3 | C1=CCN(Cc2cccs2)CC1.Cl [Compound 6A, 1-[(thiophen-2-yl)methyl]-1,2,3,6-tetrahydropyridin-1-ium chloride] | no increase in IPX levels | about 40% | only inhibited cAMP synthesis | the same as inhibition by carbachol
